Each structure is given as a SMILES string.

In this test the target is T1, recombinant human LTA4 hydrolase (rhLTA4H) (Homo sapiens, UniProt P09960).
T1 construct: made in house; host or cells: Spodoptera frugiperda (Sf-9) cells, recombinant baculovirus (pFastBac1)
T1 sequence (P09960 1-611): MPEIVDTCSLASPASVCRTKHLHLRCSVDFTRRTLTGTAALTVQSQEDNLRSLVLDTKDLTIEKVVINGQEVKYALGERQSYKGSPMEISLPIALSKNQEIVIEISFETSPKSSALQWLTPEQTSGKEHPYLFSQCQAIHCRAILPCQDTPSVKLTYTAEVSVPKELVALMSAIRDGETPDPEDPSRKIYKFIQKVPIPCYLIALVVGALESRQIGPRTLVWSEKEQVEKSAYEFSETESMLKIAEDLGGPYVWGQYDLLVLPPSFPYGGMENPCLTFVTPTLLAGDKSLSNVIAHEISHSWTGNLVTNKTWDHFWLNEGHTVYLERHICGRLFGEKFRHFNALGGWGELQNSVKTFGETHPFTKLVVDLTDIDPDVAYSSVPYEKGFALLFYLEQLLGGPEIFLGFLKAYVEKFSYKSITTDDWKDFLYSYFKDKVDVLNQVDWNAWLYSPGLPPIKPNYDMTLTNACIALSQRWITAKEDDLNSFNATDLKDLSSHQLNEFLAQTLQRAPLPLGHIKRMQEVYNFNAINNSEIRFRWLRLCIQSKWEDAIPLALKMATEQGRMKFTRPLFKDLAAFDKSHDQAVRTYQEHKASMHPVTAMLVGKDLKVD
Kind of test: Recombinant human LTA4 hydrolase assay for LTA4 hydrolase inhibitor activity. To be noted: rhLTA4H, LTA4 substrate, LTB4 by immunoassay; single determination or average; read-out: IC50. The format is biochemical. The gist of the method:
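LTB4 formed from LTA4 substrate (free acid from the methyl ester) was quantified by enzyme immunoassay after a 30 min rt reaction. Enzyme was 10 ng Sf-9-expressed human LTA4 hydrolase, pre-incubated 10 min with compound.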
The IC50 is the concentration that gives 50% inhibition. For the compound `O=C(c1ccc(Cl)cc1)C1CCN(CCc2ccc(Oc3nc4cnccc4s3)cc2)CC1` [Example 195, (4-Chlorophenyl)(1-{2-[4-([1,3]thiazolo[4,5-c]pyridin-2-yloxy)phenyl]ethyl}piperidin-4-yl)methanone], the IC50 worked out at 1370 nM.

Turning to `CC(=O)N1[C@@H]2CC[C@H]1C[C@H](NCc1ccc(Oc3nc4ncccc4s3)cc1)C2` [Example 170, meso-(3-exo)-8-Acetyl-N-{[4-([1,3]thiazolo[4,5-b]pyridin-2-yloxy)phenyl]methyl}-8-azabicyclo[3.2.1]octan-3-amine], the IC50 is 29 nM.

Regarding `c1ccc(OC2CCN(CCOc3ccc(Oc4nc5ncccc5s4)cc3)CC2)cc1` [Example 8, 2-{4-[2-(4-Phenoxypiperidin-1-yl)ethoxy]phenoxy}[1,3]thiazolo[4,5-b]pyridine], the IC50 was 130 nM.

`CS(=O)(=O)N[C@@H]1CC2CC[C@@H](C1)N2CCc1ccc(Oc2nc3cccnc3s2)cc1` [Example 194, meso-N-[(3-exo)-8-{2-[4-([1,3]Thiazolo[5,4-b]pyridin-2-yloxy)phenyl]ethyl}-8-azabicyclo[3.2.1]oct-3-yl]methanesulfonamide]: the IC50 is 92 nM.

Consider `c1ccc2c(c1)CN(CCOc1ccc(Oc3nc4ncccc4s3)cc1)C2` [Example 2, 2-{4-[2-(1,3-Dihydro-2H-isoindol-2-yl)ethoxy]phenoxy}[1,3]thiazolo[4,5-b]pyridine], for which the IC50 is 110 nM.

Regarding `Cc1ccnc2nc(Oc3ccc(CN4CCC(NC(=O)c5ccncc5)CC4)cc3)sc12` [Example 206, N-(1-{4-[(7-Methyl[1,3]thiazolo[4,5-b]pyridin-2-yl)oxy]benzyl}piperidin-4-yl)pyridine-4-carboxamide], the IC50 came to 35 nM.

Regarding `Cc1ccnc2nc(Oc3ccc(OCCN4CCN(C(=O)c5ccncc5)CC4)cc3)sc12` [Example 143, 7-Methyl-2-(4-{2-[4-(pyridin-4-ylcarbonyl)piperazin-1-yl]ethoxy}phenoxy)[1,3]thiazolo[4,5-b]pyridine], the IC50 came out at 193 nM.

Turning to `O=C1CCN(CCc2ccc(Oc3nc4nccnc4s3)cc2)CCN1` [Example 177, 1-{2-[4-([1,3]Thiazolo[4,5-b]pyrazin-2-yloxy)phenyl]ethyl}-1,4-diazepan-5-one], the IC50 worked out at 624 nM.

As for `c1cc2nc(Oc3ccc(CN4CCCCC4)cc3)sc2cn1` [Example 114, 2-[4-(Piperidin-1-ylmethyl)phenoxy][1,3]thiazolo[5,4-c]pyridine], the IC50 worked out at 680 nM.

Take `CN1CCN(Cc2ccc(Oc3nc4cnccc4s3)cc2)CC1=O` [Example 224, 1-Methyl-4-[4-([1,3]thiazolo[4,5-c]pyridin-2-yloxy)benzyl]piperazin-2-one]: the IC50 is 4850 nM.

In the case of `NC(=O)C1CCN(CCc2ccc(Oc3nc4cccnc4s3)cc2)CC1` [Example 67, 1-{2-[4-([1,3]Thiazolo[5,4-b]pyridin-2-yloxy)phenyl]ethyl}piperidine-4-carboxamide], the IC50 worked out at 190 nM.

As to `CN(CCN1CCCCC1)Cc1ccc(Oc2nc3ncccc3s2)cc1` [Example 271, N-Methyl-2-piperidin-1-yl-N-[4-([1,3]thiazolo[4,5-b]pyridin-2-yloxy)benzyl]ethanamine], the IC50 was found to be 293 nM.

Regarding `CC(=O)N1C[C@@H]2C[C@H]1CN2Cc1ccc(Oc2nc3nc(C)ccc3s2)cc1` [Example 126, 2-(4-{[(1S,4S)-5-Acetyl-2,5-diazabicyclo[2.2.1]hept-2-yl]methyl}phenoxy)-5-methyl[1,3]thiazolo[4,5-b]pyridine], the IC50 amounted to 920 nM.

As to `c1cc2sc(Oc3ccc(CCN4CCCC4)cc3)nc2cn1` [Example 221, 2-[4-(2-Pyrrolidin-1-ylethyl)phenoxy][1,3]thiazolo[4,5-c]pyridine], the IC50 turned out to be 181 nM.

With `CC(=O)N1C[C@@H]2C[C@H]1CN2Cc1ccc(Oc2nc3c(C)ccnc3s2)cc1` [Example 281, 2-(4-{[(1S,4S)-5-Acetyl-2,5-diazabicyclo[2.2.1]hept-2-yl]methyl}phenoxy)-7-methyl[1,3]thiazolo[5,4-b]pyridine], the IC50 was more than 10000 nM.

Values taken from US20110190503A1, “Thiazolopyridin-2-yloxy-phenyl and thiazolopyrazin-2-yloxy-phenyl amines as modulators of leukotriene A4 hydrolase” (Janssen Pharmaceutical NV, priority 2008, published 2011).
